Assays:
[1] = Concentration-corrected QT interval analysis; format: in vivo; conditions: across a range of plasma concentration; data on file
Procedure: In the current study, itraconazole was administered as an oral solution on an empty stomach to ensure the highest oral absorption under fasting conditions and minimize gastrointestinal tract irritation during fasting. […] The tolerability of higher exposure is supported by previous safety and PK data.[7], [10] In a phase 1 study of ripretinib in patients with cancer, the maximum tolerated dose was not reached with doses up to ripretinib 200 mg twice daily.[7] Dose escalation to ripretinib 150 mg twice daily was offered to patients in a phase 1 and phase 3 clinical study after radiologic disease progression on 150 mg once daily.[7], [11] […] Steady‐state PK exposure following ripretinib 150 mg twice daily was approximately 2‐fold higher compared with ripretinib 150 mg once daily.[7], [10] […] However, the exposure–safety relationships were relatively shallow, and most AEs were Grades 1 and 2.

CYP2B6 = target: T1, CYP2B6 (Homo sapiens, UniProt P20813); test: Incubation with recombinant human CYPs, substrate disappearance; format: in vitro ADME; conditions: ripretinib 0.1 or 1 μM, data on file
T1 sequence (P20813 1-491): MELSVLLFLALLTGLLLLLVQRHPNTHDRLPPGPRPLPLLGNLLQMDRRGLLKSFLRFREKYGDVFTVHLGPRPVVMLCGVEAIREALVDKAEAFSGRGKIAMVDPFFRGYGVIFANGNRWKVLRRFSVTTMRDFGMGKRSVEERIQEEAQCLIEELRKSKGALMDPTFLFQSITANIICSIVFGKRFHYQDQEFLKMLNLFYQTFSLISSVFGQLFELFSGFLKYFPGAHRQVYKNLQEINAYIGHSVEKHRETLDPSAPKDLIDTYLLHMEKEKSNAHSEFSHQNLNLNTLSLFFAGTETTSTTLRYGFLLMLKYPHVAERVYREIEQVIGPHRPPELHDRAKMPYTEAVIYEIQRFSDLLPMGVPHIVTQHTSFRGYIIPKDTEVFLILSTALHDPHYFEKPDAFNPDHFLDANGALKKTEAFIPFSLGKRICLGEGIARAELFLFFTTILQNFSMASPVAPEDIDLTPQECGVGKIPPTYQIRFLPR
Procedure: In vitro studies with recombinant human cytochrome P450 isoforms (CYPs) and human liver microsomes (with chemical inhibitors) indicate that CYP3A4/5 plays a major role in the metabolism of ripretinib (data on file). When incubated with a panel of recombinant human CYPs, ripretinib (0.1 or 1 μM) disappeared in the presence of CYP3A4 (87.8%–100%), CYP2D6 (97.7%–100%), CYP2C8 (71.2% and 18.9%, respectively), and CYP2C19 (15.7% and 6.7%, respectively).

[2] = Safety assessment (TEAEs), itraconazole study
Procedure: On days 8 through 10, participants received itraconazole 200 mg once daily with a meal or snack. On day 11, participants received ripretinib 50 mg 1 hour after itraconazole 200 mg under fasting conditions. On days 12 through 17, participants received itraconazole 200 mg once daily with a meal or snack. […] Safety was assessed throughout and a follow‐up safety phone call was conducted at day 24 or 7 days after the last dose of study drug if participants withdrew early.
TEAEs were defined as adverse events (AEs) that occurred/worsened during or after administration of any of the study drugs. Relationship to study drug was assessed by the investigator. The safety population included all enrolled participants who received ≥1 dose of ripretinib.
Participant demographics, clinical characteristics, and PK parameters were summarized using descriptive statistics. Safety data were summarized as n (%). […] PK parameters were calculated using Phoenix® WinNonlin® v7.0 or higher (Certara USA Inc.).

[3] = itraconazole study: ripretinib 50 mg alone and with itraconazole 200 mg QD, safety population N = 20

With CCn1c(=O)c(-c2cc(NC(=O)Nc3ccccc3)c(F)cc2Br)cc2cnc(NC)cc21 [Ripretinib] the “Concentration-corrected QT interval analysis” value [1] was “did not suggest particular concern”, the Substrate disappearance (CYP2B6) was “less than 7%” and the “Deaths and serious AEs” value ([2]; itraconazole study, N = 20) was “No deaths occurred and no participants experienced serious AEs”. The “Number of TEAEs attributed to study drug” value ([2]; itraconazole study, N = 20) was 36, the “Participants with TEAEs attributed to study drug per the investigator” value ([2]; itraconazole study, N = 20) was 13 (65%) n (%) and the “Total number of TEAEs” value ([2]; itraconazole study, N = 20) was 44. The “Participants reporting any TEAE” value [2, 3] was 14 (70.0) n (%), the “TEAE: ALT increase” value [2, 3] was 1 (5.0) n (%) and the “TEAE: AST increase” value [2, 3] was 0 n (%). For the same molecule, the “TEAE: Abdominal discomfort” value [2, 3] was 0 n (%), the “TEAE: Abdominal pain” value [2, 3] was 3 (15.0) n (%) and the “TEAE: Abdominal pain lower” value [2, 3] was 1 (5.0) n (%). For the same molecule, the “TEAE: Amylase increase” value [2, 3] was 4 (20.0) n (%), the “TEAE: Constipation” value [2, 3] was 1 (5.0) n (%) and the “TEAE: Diarrhea” value [2, 3] was 4 (20.0) n (%). The “TEAE: Fatigue” value [2, 3] was 1 (5.0) n (%), the “TEAE: Headache” value [2, 3] was 2 (10.0) n (%) and the “TEAE: Lipase increase” value [2, 3] was 5 (25.0) n (%). The “TEAE: Nausea” value [2, 3] was 2 (10.0) n (%), the “TEAE: Vomiting” value [2, 3] was 1 (5.0) n (%) and the “Participants reporting any TEAE” value ([2]; itraconazole study: ripretinib 50 mg alone and with itraconazole 200 mg QD, safety population N = 20, listed as ripretinib) was 14 (70%) n (%).

— article PMC9790248, “Effects of CYP3A Inhibition, CYP3A Induction, and Gastric Acid Reduction on the Pharmacokinetics of Ripretinib, a Switch Control KIT Tyrosine Kinase Inhibitor” (Clinical Pharmacology in Drug Development, 2022)
